Data on 18 molecules can be found in PMC12207589, “Exploring Linear mono-, bis- and tris-Acetylene Containing Agonists of the Human Olfactory Receptor OR1A1” (Journal of Medicinal Chemistry, 2025).

The structures appear in SMILES notation. pEC50: −log10 of the molar value. “Also recorded” adds a separate entry of the source.

Assay [1] addresses T1, human olfactory receptor OR1A1 (Homo sapiens, UniProt Q9P1Q5).
T1 construct: expressed in transfected cells; host or cells: HEK293T-derived cells
T1 sequence (Q9P1Q5 1-309): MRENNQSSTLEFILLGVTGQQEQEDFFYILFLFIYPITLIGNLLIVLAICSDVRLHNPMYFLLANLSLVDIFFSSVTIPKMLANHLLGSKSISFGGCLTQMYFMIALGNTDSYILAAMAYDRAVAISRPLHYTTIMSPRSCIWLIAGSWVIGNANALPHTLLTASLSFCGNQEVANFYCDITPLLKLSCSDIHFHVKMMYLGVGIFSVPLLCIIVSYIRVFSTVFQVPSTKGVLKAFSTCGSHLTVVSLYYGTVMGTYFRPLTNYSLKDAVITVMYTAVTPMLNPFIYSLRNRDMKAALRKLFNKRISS
As to the kind of experiment: Dual-Glo luciferase assay of olfactory receptor activation (agonist dose-response). In kind it is cell-based. The following applies: for pEC50: OR1A1 response, best-fit value with 95% confidence interval, EC50 = ligand concentration for half-maximal response; for agonist activity / response of OR1A1 (in words): luciferase assay, normalized responses. As to the method: Olfactory receptor activation was evaluated using the Dual-Glo Luciferase Assay System (Promega (Beijing) Biotech Co., Ltd., Beijing, China). HEK293T-derived cells were maintained in minimal essential medium (Sigma) containing 10% fetal bovine serum (Sigma) (M10), 500 µg/mL penicillin–streptomycin (Invitrogen), and 6 µg/mL amphotericin B (Sigma) in a 37 °C incubator with 5% CO2. After culturing to a desired confluence, the cells were plated on 96-well plates (Corning Inc., Kennebunk, ME, USA). For each 96-well plate, 1 μg of CRE-luciferase, 0.5 μg of pRL-SV40, 0.5 μg of OR, 0.5 μg of RTP1S, and 0.25 μg of M3R were transfected using the transfection reagent Lipofectamine2000 (Invitrogen, Life Technologies Corp., Carlsbad, CA, USA). Twenty-four hours post transfection, the transfection media were removed, and the cells were rinsed with 50 μL PBS buffer (pH 7.4) per well. The cells were then stimulated with 25 μL 1% (v/v) ligand samples diluted in CD293 stimulation medium (Gibco Brand, ThermoFisher Biochemical Products (Beijing) Co., Ltd., Beijing, China). Four hours post stimulation, firefly luciferase (FL) and Renilla luciferase (RL) activities were measured following manufacturer’s protocols, using a Synergy H1 plate reader (BioTek Instruments, Winooski, VT, USA). Normalized luciferase activity was calculated using the formula: FL/RLX-FL/RLXC, where FL/RLX is the response to the ligands, FL/RLXC is the basal value of the same OR. Each experiment was repeated at least 3 times and error bars indicate standard error mean. Data were analyzed with GraphPad Prism.

Another assay concerns OR1A1 olfactory receptor. The following applies: cited from earlier work; for agonist quality on OR1A1 (in words): known OR1A1 agonists, Introduction and Figure 1, reference numbers not given; for pEC50: enantiomers of citronellol on OR1A1, already reported, reference number not given.

With `C[C@@H](O)C#CC#Cc1ccc(C(C)(C)C)cc1` [(R)-21], in assay [1], the pEC50 is 5.13 and the “agonist activity / response of OR1A1 (in words)” value (shortened to “agonist activity / response”) is reported as “strongest agonist effect”.
With `C[C@@H]1CCCCCCCCCCCCC(=O)C1` [compound 1, muscone], the “agonist quality on OR1A1 (in words)” value with OR1A1 olfactory receptor is reported as “very poor agonists”.
Turning to `CC(C)=CCC[C@H](C)CCO` [(S)-7, citronellol], the pEC50 on OR1A1 olfactory receptor is 4.03.
In the case of `CC(C)(C)c1ccc(C#CC#CCO)cc1` [compound 20], in assay [1], the pEC50 is 4.37 and the “agonist activity / response” value was “strong agonist activity”.
As for `CC(=O)C#CC#Cc1ccc(C(C)(C)C)cc1` [compound 15], the “agonist activity / response” value in assay [1] was “essentially inactive”.
Same read-out and setting: under `CC(C)(C)C#CC#Cc1ccc2c(c1)C(=O)CC2` [compound 16] stands “not active”.
As for `CC(=O)c1ccc(C#CC#CC(C)(C)C)cc1` [compound 13], in assay [1], the pEC50 was 4.44 and the “agonist activity / response” value is “activated OR1A1”.
The corresponding values for `CC(=O)c1cccc(C#CC#CC(C)(C)C)c1` [compound 14] are 4.45 and “activated OR1A1”.
Regarding `CC(O)C#CC#Cc1ccc(C(C)(C)C)cc1` (centres unmarked) [compound 21], in assay [1], the pEC50 was 4.36 and the “agonist activity / response” value was “much stronger interaction with the OR1A1 receptor than the corresponding ketone 15”.
Turning to `CCCCCC(=O)C(C)C(C)=O` (centres unmarked) [compound 9, 3-methyl-2,4-nonanedione], the “agonist quality on OR1A1 (in words)” value in the assay with OR1A1 olfactory receptor is given as “extremely potent agonist”.
For `CC(C)=CCC[C@@H](C)CCO` [(R)-7, citronellol], the pEC50 at OR1A1 olfactory receptor was 4.08.
`CC(=O)c1c(C)c([N+](=O)[O-])c(C(C)(C)C)c([N+](=O)[O-])c1C` [compound 2, musk ketone]: the “agonist quality on OR1A1 (in words)” value in the assay on OR1A1 olfactory receptor is listed as “very poor agonists”.
On to `CC(C)(O)C#CC#Cc1ccc(C(C)(C)C)cc1` [compound 22], for which the “agonist activity / response” value in assay [1] is “weakest agonist in this alcohol series”.
With `CC(C)(C)C#CC#Cc1ccc2c(c1)COC2` [compound 18], the “agonist activity / response” value in assay [1] is “displayed a stronger response”.
Turning to `C[C@H](O)C#CC#Cc1ccc(C(C)(C)C)cc1` [(S)-21], in assay [1], the pEC50 is 4.62.
As to `CC(=O)c1cccc(C#CC#CC#CC(C)(C)C)c1` [compound 19], the “agonist activity / response” value in assay [1] is on record as “did not result in an active compound; also recorded: weak agonist”.
With `CC(C)=CCCC(C)CCO` (centres unmarked) [compound 7, citronellol], in the assay on OR1A1 olfactory receptor, the “agonist quality on OR1A1 (in words)” value is on record as “good agonist”.
On to `CC(C)(C)C#CC#Cc1cccc2c1CCC2=O` [compound 17], for which the “agonist activity / response” value in assay [1] is “micromolar range potency with modest to good agonist efficacy”.

As a reminder, the pEC50 is −log10 of the EC50, conventionally taken in molar units.
